Test [1] addresses T1, RAD51 (Homo sapiens, UniProt Q06609).
T1 sequence (Q06609 1-339): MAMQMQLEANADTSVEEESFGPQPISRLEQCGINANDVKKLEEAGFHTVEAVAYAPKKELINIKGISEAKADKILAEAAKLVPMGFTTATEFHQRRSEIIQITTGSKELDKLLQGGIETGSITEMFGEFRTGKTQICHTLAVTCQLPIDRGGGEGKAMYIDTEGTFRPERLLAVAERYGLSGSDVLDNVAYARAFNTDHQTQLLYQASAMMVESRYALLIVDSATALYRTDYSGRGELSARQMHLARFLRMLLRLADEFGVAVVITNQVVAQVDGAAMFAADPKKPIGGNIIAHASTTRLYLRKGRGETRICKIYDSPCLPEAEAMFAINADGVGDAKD
Kind of test: Gel-based D-loop assay. It is filed as biochemical. The settings on record: for IC50: read-out: D-Loops IC50; for D-loop inhibitory activity, in words: summary of Tables 2 and 3. As for the experimental part: Human RAD51 in reaction buffer was combined with compound in […] DMSO, incubated at 37° C. for 10 min, and then 1 μl of 5′-^32P-labeled 90-mer ssDNA (5′-[…]) with homology to the plasmid pRS306 ^34 was added and the reaction was incubated at 37° C. for an additional 5 minutes. 1 μl of supercoiled pRS306 was then added to the reaction and incubated at 37° C. for 20 minutes; at this point the reaction consisted of 25 mM HEPES-NaOH (pH 7.0), 1 mM ATP, 1 mM MgCl2, 1 mM DTT, 1.5 μM BSA, 4.5% DMSO, 0.5 μM RAD51, 11 mM NaCl, 1% glycerol, 20 nM ssDNA, and 5 nM pRS306. The reactions were de-proteinized with 0.8% SDS and 0.8 mg/ml proteinase K, mixed with gel loading buffer, and run on a 0.9% agarose/1×TAE gel, which was dried and exposed to a phosphor screen overnight and imaged on a Storm 860 PhosphorImager. Compound IC50 values were obtained by least-squares regression fitting of appropriate linear, log, or sigmoid dose-response models to the data, with the standard error indicated.
To improve upon the D-loop inhibitory activity, medicinal chemical studies were undertaken to optimize 8. First, different functional groups were appended to rings A and B as substituents, including alkyl groups of different sizes, electron withdrawing/donating groups, and hydrogen bond donor/acceptor groups. Next, replacement of the phenyl ring B with different heterocycles or other saturated/unsaturated rings was investigated in order to probe its role. For each of the prepared compounds, the gel-based D-loop assay and the microplate-based DNA binding assay were used to characterize the biochemical activities.

Test [2] deals with T1, RAD51. The test is described as follows: Fluorescence polarization-based DNA binding assay (RAD51-ssDNA binding). It counts as biochemical. The settings on record: for ssDNA binding IC50 / IC50: Stim = stimulator; for Emax: read-out: ssDNA binding Max effect; for influence on RAD51-ssDNA binding, in words: summary of Tables 2 and 3. As for the experimental part: The fluorescence polarization-based DNA binding assay and purification of human RAD51 used for this assay was performed as previously described with a few modifications.^23 Reactions were carried out in black 384-well polystyrene plates. In each well, RAD51 protein was combined with reaction buffer and varying concentrations of compound in DMSO in an initial volume of 40 μl and incubated at 37° C. for 40 minutes. Then, 10 μl of reaction buffer containing fluorescently-labeled ssDNA substrate (5′-Alexa488-oligo-dT45) was added and the reaction incubated at 37° C. for another 40 minutes, after which the plate was read on a Tecan Infinite 200 Pro plate reader equipped with two sets of 485±25 nm/535±35 nm with parallel or perpendicularly-oriented polarization filters. In both steps of the reaction setup, buffer components were maintained at 20 mM HEPES-NaOH (pH 7.5), 2 mM ATP, 10 mM MgCl2, 0.1 mM TCEP-HCl (tris(2-carboxyethyl)phosphine), and 0.25 μM BSA. The final reaction contained 4% DMSO, 0.2 μM RAD51, 30 mM NaCl, 2% glycerol, and 2.22 nM ssDNA substrate. Compound IC50 values were obtained by least-squares regression fitting of appropriate linear, log, or sigmoid dose-response models to the data, with the standard error indicated. […]

Where [3] appears, read: Table 3, cells marked ↑: compound stimulates RAD51-ssDNA binding.
The mark [4] stands for this setting: Table 3, cells marked ↓: compound inhibits RAD51-ssDNA binding.
Where [5] appears, read: Table 2, cells marked ↑: compound stimulates RAD51-ssDNA binding.
The mark [6] stands for this setting: Table 2, cells marked ↓: compound inhibits RAD51-ssDNA binding.

Experimental findings from patent publication US10973819B2, “Small molecules inhibitors of RAD51” (The University of Chicago, priority 2016, dated 2021) are described below.

Read-outs that look alike come from different tables or passages of the source.

Broadly, the IC50 is the midpoint of a concentration-inhibition curve. For `CCCOc1ccc2c(c1)nc(-c1ccc(N)cc1)c1cccn12` [Compound 15a, 4-(7-Propoxypyrrolo[1,2-a]quinoxalin-4-yl)aniline], on RAD51 [1] (Table 3), the concentration for half-maximal inhibition (IC50) was found to be 46.1 ± 2.8 µM. In addition, the “ssDNA binding IC50” value at RAD51 [2] (Table 3) is reported as “Stim”. In addition, at RAD51 [2] (setting [3]), the Emax was 117 ± 18%. The “influence on RAD51-ssDNA binding, in words” value (shortened to “influence”) on RAD51 [2] is listed as “stimulators”.

As for `Oc1ccc2c(c1)nc(-c1cccnc1)c1cccn12` [Compound 13b, 4-(Pyridin-3-yl)pyrrolo[1,2-a]quinoxalin-7-ol], the “D-Loops Max inhibition effect” value on RAD51 [1] (Table 3) worked out at 53 ± 30%. In addition, the Emax on RAD51 [2] (setting [4]) amounted to 87 ± 10%.

In the case of `C1=C(c2nc3ccccc3n3cccc23)CCCC1` [Compound 11c, 4-(Cyclohex-1-en-1-yl)pyrrolo[1,2-a]quinoxaline], at RAD51 [1], the “D-loop inhibitory activity, in words” value is recorded as “weak”. In addition, the “ssDNA binding IC50” value at RAD51 [2] (Table 2) was “Stim”. Moreover, the Emax on RAD51 [2] (setting [5]) is 42 ± 17%. Further, at RAD51 [2], the “influence” value was “modest influence”.

Regarding `c1ccc2c(c1)nc(-c1ccc(N3CCOCC3)cc1)c1cccn12` [Compound 9j, 4-(4-(Pyrrolo[1,2-a]quinoxalin-4-yl)phenyl)morpholine], on RAD51 [1] (Table 2), the “D-Loops Max inhibition effect” value came to 68 ± 7% and the half-maximal inhibitory concentration (IC50) stood at 27.2 ± 3 µM. In addition, the Emax at RAD51 [2] (setting [6]) came to 11 ± 19%.

Turning to `c1ccc2c(-c3nc4ccccc4n4cccc34)cccc2c1` [Compound 11d, 4-(Naphthalen-1-yl)pyrrolo[1,2-a]quinoxaline], the “D-loop inhibitory activity, in words” value on RAD51 [1] is on record as “weak”. The “ssDNA binding IC50” value at RAD51 [2] (Table 2) is “Stim”. Besides, the Emax on RAD51 [2] (setting [5]) came to 56 ± 31%. In addition, the “influence” value on RAD51 [2] is “modest influence”.

As for `COc1ccc2c(c1)nc(-c1ccc(N)cc1)c1cccn12` [Compound 12c, 4-(7-Methoxypyrrolo[1,2-a]quinoxalin-4-yl)aniline], at RAD51 [1] (Table 3), the “D-Loops Max inhibition effect” value came to 100 ± 4%. Moreover, the values for the concentration for half-maximal inhibition (IC50) on RAD51 [1] (Table 3) and at RAD51 [2] (Table 3) were 13.2 µM and greater than 100 µM, respectively. Besides, the Emax on RAD51 [2] (setting [4]) was 29 ± 8%. Besides, the “influence” value on RAD51 [2] is recorded as “only weakly influenced”.

Turning to `COc1ccc2c(c1)nc(-c1ccc([N+](=O)[O-])cc1)c1cccn12` [Compound 12b, 7-Methoxy-4-(4-nitrophenyl)pyrrolo[1,2-a]quinoxaline], the “ssDNA binding IC50” value at RAD51 [2] (Table 3) is on record as “Stim”. In addition, the Emax on RAD51 [2] (setting [3]) came to 105 ± 47%. Besides, on RAD51 [2], the “influence” value is recorded as “stimulators”.

Consider `Nc1ccc(-c2nc3cc(F)c(F)cc3n3cccc23)cc1` [Compound 12l, 4-(7,8-Difluoropyrrolo[1,2-a]quinoxalin-4-yl)aniline], for which the concentration for half-maximal inhibition (IC50) on RAD51 [1] (Table 3) was 34 ± 2.9 µM; at RAD51 [2] (Table 3), greater than 100 µM. In addition, the Emax on RAD51 [2] (setting [4]) worked out at 42 ± 8%.

For the molecule `Nc1cccc(-c2nc3ccccc3n3cccc23)c1` [Compound 9c, 3-(Pyrrolo[1,2-a]quinoxalin-4-yl)aniline], at RAD51 [1] (Table 2), the IC50 worked out at 91.1 ± 10.3 µM. Besides, at RAD51 [2] (setting [6]), the Emax was 11 ± 9%.

As to `Nc1ccc(-c2nc3ccccc3n3cccc23)cc1` [Compound 9g, 4-(Pyrrolo[1,2-a]quinoxalin-4-yl)aniline], the IC50 was 22.1 µM at RAD51 [1] (Table 2) and greater than 100 µM on RAD51 [2] (Table 2). Also, the Emax on RAD51 [2] (setting [6]) came out at 18 ± 11%.

For the molecule `COc1ccc2c(c1)nc(-c1ccc(N(C)C)cc1)c1cccn12` [Compound 8, 4-(7-Methoxypyrrolo[1,2-a]quinoxalin-4-yl)-N,N-dimethylaniline], on RAD51 [1] (Table 1), the “D-Loops Max inhibition effect” value is 67% and the IC50 is 13 µM. The “ssDNA binding IC50” value at RAD51 [2] (Table 1) is recorded as “Stim”. Also, at RAD51 [2] (Table 1, cells marked ↑: compound stimulates RAD51-ssDNA binding), the Emax was determined as 40 ± 28%.

In turn, `O=[N+]([O-])c1ccc(-c2nc3cc(O)ccc3n3cccc23)cc1` [Compound 12e, 4-(4-Nitrophenyl)pyrrolo[1,2-a]quinoxalin-7-ol] gave an IC50 on RAD51 [2] (Table 3) of 57.8 ± 3 µM. Also, the Emax on RAD51 [2] (setting [4]) was found to be 92 ± 21%.

In the case of `c1ccc2c(c1)nc(-c1ccc(N3CCCC3)cc1)c1cccn12` [Compound 9i, 4-(4-(Pyrrolidin-1-yl)phenyl)pyrrolo[1,2-a]quinoxaline], the “ssDNA binding IC50” value at RAD51 [2] (Table 2) is given as “Stim”. The Emax on RAD51 [2] (setting [5]) came out at 69 ± 35%. Moreover, the “influence” value at RAD51 [2] was “modest influence”.

Turning to `O=[N+]([O-])c1cccc(-c2nc3ccccc3n3cccc23)c1` [Compound 9b, 4-(3-Nitrophenyl)pyrrolo[1,2-a]quinoxaline], the Emax on RAD51 [2] (setting [6]) stood at 52 ± 14%. Also, the “influence” value on RAD51 [2] is listed as “modest influence”.

With `CN(C)c1ccc(-c2nc3ccccc3n3cccc23)cc1` [Compound 9a, N,N-dimethyl-4-(pyrrolo[1,2-a]quinoxalin-4-yl)aniline], the IC50 on RAD51 [1] (Table 2) was determined as 27.6 ± 6 µM. Besides, the “ssDNA binding IC50” value on RAD51 [2] (Table 2) was “Stim”. Further, the Emax on RAD51 [2] (setting [5]) was 88 ± 22%. For the same molecule, the “influence” value at RAD51 [2] is listed as “modest influence”.

Consider `CN(C)c1ccc(-c2nc3cc(F)c(F)cc3n3cccc23)cc1` [Compound 12m, 4-(7,8-Difluoropyrrolo[1,2-a]quinoxalin-4-yl)-N,N-dimethylaniline], for which the “D-loop inhibitory activity, in words” value at RAD51 [1] was “nearly absent”. Moreover, the “ssDNA binding IC50” value on RAD51 [2] (Table 3) is “Stim”. The Emax on RAD51 [2] (setting [3]) was determined as 65 ± 22%.

For `FC(F)(F)Oc1ccc(-c2nc3ccccc3n3cccc23)cc1` [Compound 9e, 4-(4-(Trifluoromethoxy)phenyl)pyrrolo[1,2-a]quinoxaline], on RAD51 [2] (Table 2), the “ssDNA binding IC50” value was “Stim”. For the same molecule, on RAD51 [2] (setting [5]), the Emax is 30 ± 21%.

As to `Oc1ccc(-c2nc3ccccc3n3cccc23)cc1` [Compound 9d], the Emax at RAD51 [2] (setting [6]) came to 14 ± 16%.

Turning to `Nc1ccc(-c2nc3cc(F)ccc3n3cccc23)cc1` [Compound 12i, 4-(7-Fluoropyrrolo[1,2-a]quinoxalin-4-yl)aniline], the IC50 on RAD51 [1] (Table 3) was 25 ± 5.1 µM; on RAD51 [2] (Table 3), 81.5 ± 16.6 µM. Further, on RAD51 [2] (setting [4]), the Emax was 60 ± 18%.

For the molecule `CN(C)c1ccc(-c2nc3cc(OC(C)(C)C(N)=O)ccc3n3cccc23)cc1` [Compound 16, 2-((4-(4-(Dimethylamino)phenyl)pyrrolo[1,2-a]quinoxalin-7-yl)oxy)-2-methylpropanamide], the IC50 on RAD51 [1] (Table 3) was greater than 100 µM. In addition, the “ssDNA binding IC50” value at RAD51 [2] (Table 3) was “Stim”. Also, the Emax at RAD51 [2] (setting [3]) turned out to be 131 ± 28%. Also, the “influence” value at RAD51 [2] is recorded as “stimulators”.

Consider `COc1ccc2c(c1)nc(-c1ccc(O)cc1)c1cccn12` [Compound 12a, 4-(7-Methoxypyrrolo[1,2-a]quinoxalin-4-yl)phenol], for which the “D-Loops Max inhibition effect” value at RAD51 [1] (Table 3) was 13 ± 12%. Further, the values for the IC50 at RAD51 [1] (Table 3) and on RAD51 [2] (Table 3) were greater than 100 µM and 35 ± 14 µM, respectively. Besides, at RAD51 [2] (setting [4]), the Emax came out at 100 ± 18%. Moreover, the “influence” value at RAD51 [2] is on record as “relatively strong ssDNA binding inhibition”.

As to `c1cncc(-c2nc3ccccc3n3cccc23)c1` [Compound 11a, 4-(Pyridin-3-yl)pyrrolo[1,2-a]quinoxaline], the results for the half-inhibitory concentration (IC50) at RAD51 [1] (Table 2) and on RAD51 [2] (Table 2) were 71.7 ± 18.1 µM and greater than 100 µM, respectively. Moreover, the “D-loop inhibitory activity, in words” value at RAD51 [1] is “moderate”. In addition, the Emax at RAD51 [2] (setting [6]) was found to be 6 ± 10%.

Regarding `Oc1ccc(-c2nc3cc(O)ccc3n3cccc23)cc1` [Compound 12d, 4-(4-Hydroxyphenyl)pyrrolo[1,2-a]quinoxalin-7-ol], the IC50 at RAD51 [1] (Table 3) was 27.6 ± 4.9 µM; on RAD51 [2] (Table 3), greater than 100 µM. In addition, the Emax at RAD51 [2] (setting [4]) turned out to be 72 ± 11%.

For the molecule `O=[N+]([O-])c1ccc(-c2nc3ccccc3n3cccc23)cc1` [Compound 9f, 4-(4-Nitrophenyl)pyrrolo[1,2-a]quinoxaline], the Emax on RAD51 [2] (setting [6]) was 16 ± 13%.
